Data from patent US20190388559A1, “ENCAPSULATION OF METAL OXIDE NANOMATERIALS FOR CONTROLLED RELEASE AND TARGETED DELIVERY” (Boise State University, priority 2018, published 2019).

System: T47D breast cancer cells
Assay: Alamar Blue viability of T47D cells with or without UV triggered release
Format: cell-based
Conditions: 48 hours, free nZnO 16.3 μg/mL, free PTX 40 nM
Procedure: Both cell lines were cultured in log phase using RPMI 1640 media supplemented with 10% fetal bovine serum (FBS), 1% penicillin/streptomycin, 2 mM L-glutamine, and for T47D cells, 0.2 Units/mL of bovine insulin per American Type Culture Collection (ATCC) recommendations.
For viability assessments, both Jurkat and T47D cells were cultured following ATCC recommendations noted above. For the Jurkat T cell line, the cells were first washed with PPH free RPMI 1640 and then seeded at a concentration of 2.5×10^5 cells/mL using the same media in a 96 well plate. For T47D cells, the cells were first seeded in the culture media at 1.0×10^5 cells/well in a 24 well plate the day prior to treatment to allow for cell attachment. The media was then gently aspirated and replaced with the PPH free RPMI 1640 media prior to NP treatment. […]
Once treated with NPs, the cells were then cultured for 48 hours at 37° C. and 5% CO2. […] After optimizing the UV irradiation protocol, required UV exposure was determined to be 3 minutes for Jurkat cells and 2 minutes for T47D cells to re-establish the toxicity of the nZnO while minimizing effects to the cellular viability. Cell viability was assessed using the Alamar Blue metabolic assay. […] The fluorescence intensity measurements were performed using a Biotek Synergy MX plate reader using an excitation/emission of 530/590 nm.

Q: With `CC(=O)O[C@H]1C(=O)[C@@]2(C)[C@H]([C@H](OC(=O)c3ccccc3)[C@]3(O)C[C@H](OC(=O)[C@H](O)[C@@H](NC(=O)c4ccccc4)c4ccccc4)C(C)=C1C3(C)C)[C@]1(OC(C)=O)CO[C@@H]1C[C@@H]2O` [PTX, Paclitaxel] as the compound, how does the “effect of free (non-encapsulated) controls on viability” value read?
A: somewhat similar effect as the non-triggered release Enc-nZnO/PTX group
